{"source": "patent US10391148B2", "about": "“Method of prevention and inhibition of preterm labor” (Wayne State University, priority 2016, dated 2019)", "type_in_all_cases": "in vivo, mouse", "key": {"[1]": {"system": "pregnant female μMT mice (LPS-induced PTL)", "assay": "LPS-induced preterm labor in pregnant μMT mice: preterm delivery and neonatal/fetal mortality", "conditions": "read on gd 17.5, fPIBF1 1 μg (800 ng in method), cPIBF1 300 ng, vs PBS", "procedure": "(§1) Six to ten-week old virgin female C57BL/6 (WT) or μMT mice were mated with male Balb/c mice. Female mice were examined daily in the early morning for the presence of a vaginal plug, which denoted gestational day (gd) 0.5. In the late morning of gd 16.5, pregnant female mice were intraperitoneally administered with 200 μl sterile PBS or 200 μl sterile PBS containing 0.5, 2.5, 5, 10 or 20 μg lipopolysaccharides (LPS) from Salmonella enterica serotype typhimurium (Sigma-Aldrich L6143). The various doses of LPS were given to the mice randomly. In some experiments, splenic B cells of 5 to 8-week old virgin female WT or IL-10−/− mice were purified using a mouse resting B cell negative isolation kit (Miltenyi Biotec 130-090-862) to 94% to 99% purity as determined by CD19 staining. 107 purified B cells were adoptively transferred in 200 μl sterile PBS into pregnant female μMT mice on gd 14.5 prior to LPS administration on gd 16.5. In some other experiments, 200 μl sterile PBS or 200 μl sterile PBS containing 800 ng recombinant full-length PIBF1 (fPIBF1) (aa 1-757 (SEQ ID NO:11, with an N-terminal glutathione-S-transferase (GST) tag of 232 amino acids, Abnova H00010464-P01) or 300 ng of a recombinant C-terminal fragment of PIBF1 (cPIBF1) (aa 660-755 (SEQ ID NO:12), with an N-terminal glutathione-S-transferase (GST) tag of 232 amino acids, Abnova H00010464-Q01) was intravenously administered to pregnant female μMT mice on gd 16.5 three hours prior to intraperitoneal LPS administration. 24 hours after LPS administration, female mice were examined for delivery and death of delivered pups if delivery occurred. They were then sacrificed for the examination of neonatal/fetal mortality, which was calculated as the total number of dead delivered pups and dead fetuses divided by the total number of implantation sites. Uteri were collected, briefly washed in PBS and processed for RNA and protein extraction or flow cytometry. The people performing the analysis were not blinded to the genotype or treatment of the mice.\nThe sample size was calculated based on the effect size derived from preliminary data at 5% significance level and 80% power using the software G*Power 3.1. Sample availability exceeded the estimated sample size. Results are expressed as mean±S.E.M. Percentage data were subjected to square root transformation prior to statistical analysis to verify test assumptions of equal variance. Statistical difference in the rate of PTL between different strains of mice or different treatment groups was assessed by Fisher's exact test. Statistical difference in neonatal/fetal mortality was assessed by Mann-Whitney U test. For flow cytometry and qRT-PCR data, Shapiro-Wilk test was used to determine the normality of the data. Statistical significance was assessed by Student's t-test for normally distributed data and Mann-Whitney U test for non-normally distributed data. p values <0.05 were considered statistically significant."}, "[2]": {"system": "uterine proinflammatory mediators (Tnf, Il6, Mmp9, Cxcl2, Cxcl3, Cxcl5, Il1b, Cxcl10, Ccl3, Cxcl1, Ccl2, Cxcl9 transcripts)", "assay": "qRT-PCR of proinflammatory mediator transcripts in uterine tissues of LPS-challenged μMT mice", "conditions": "24 hours after intravenous fPIBF1 and 5 μg intraperitoneal LPS, fold change of transcripts", "procedure": "Six to ten-week old virgin female C57BL/6 (WT) or μMT mice were mated with male Balb/c mice. Female mice were examined daily in the early morning for the presence of a vaginal plug, which denoted gestational day (gd) 0.5. In the late morning of gd 16.5, pregnant female mice were intraperitoneally administered with 200 μl sterile PBS or 200 μl sterile PBS containing 0.5, 2.5, 5, 10 or 20 μg lipopolysaccharides (LPS) from Salmonella enterica serotype typhimurium (Sigma-Aldrich L6143). The various doses of LPS were given to the mice randomly. In some experiments, splenic B cells of 5 to 8-week old virgin female WT or IL-10−/− mice were purified using a mouse resting B cell negative isolation kit (Miltenyi Biotec 130-090-862) to 94% to 99% purity as determined by CD19 staining. 107 purified B cells were adoptively transferred in 200 μl sterile PBS into pregnant female μMT mice on gd 14.5 prior to LPS administration on gd 16.5. […] They were then sacrificed for the examination of neonatal/fetal mortality, which was calculated as the total number of dead delivered pups and dead fetuses divided by the total number of implantation sites. […]"}, "[3]": {"system": "CD11b+Ly-6G+ neutrophils in uterine tissues", "assay": "Flow cytometry of uterine neutrophils of LPS-challenged μMT mice", "conditions": "vs PBS; for uterine neutrophil activation (CD11b, CD18, iNOS, ICAM-1, MHC-II, CD62L expression): μMT mice 24 hours after intravenous protein and intraperitoneal LPS", "procedure": "as §1, with “Uteri were collected, briefly washed in PBS and processed for RNA and protein extraction or flow cytometry. The people performing the analysis were not blinded to the genotype or treatment of the mice.” left out\nCells were incubated with an Fc blocking reagent and stained at 4° C. with antibodies to various cell surface antigens (Tables 4, 5). […] Events were acquired on an LSR II cytometer (BD Biosciences) and analyzed by FlowJo (Tree Star). […]"}}, "data": [{"substance": "fPIBF1: recombinant full-length PIBF1, aa 1-757, SEQ ID NO:11, N-terminal GST tag of 232 amino acids, Abnova H00010464-P01", "values": [{"measurement": "neonatal/fetal mortality", "setting": "[1]; protein intravenous on gd 16.5 before 5 μg intraperitoneal LPS", "result": "significantly reduced"}, {"measurement": "rate of preterm delivery (PTL)", "setting": "[1]; protein intravenous on gd 16.5 three hours before 5 μg intraperitoneal LPS", "result": "significantly reduced"}, {"measurement": "uterine induction of proinflammatory mediators (uterine inflammation)", "setting": "[2]", "result": "suppressed"}, {"measurement": "uterine induction of proinflammatory mediators (uterine inflammation)", "setting": "[2]; listed as full-length PIBF1", "result": "reduces"}, {"measurement": "neutrophil infiltration into the uterus (frequency of CD11b+Ly-6G+ neutrophils in CD45+ cells)", "setting": "[3]; gd 17.5 μMT mice after intravenous protein and intraperitoneal LPS on gd 16.5", "result": "inhibited"}, {"measurement": "uterine neutrophil activation (CD11b, CD18, iNOS, ICAM-1, MHC-II, CD62L expression)", "setting": "[3]", "result": "reduced activation"}, {"measurement": "uterine neutrophil activation (CD11b, CD18, iNOS, ICAM-1, MHC-II, CD62L expression)", "setting": "[3]; listed as full-length PIBF1", "result": "reduces"}]}]}
